# Measured values reported in US11471448B2 (priority 2020, dated 2022).
# Where a name gives a salt, the structure may show the parent alone.
# Assays:
# [1] = test system: patients with COVID-19 pneumonia; assay: Pilot study / compassionate use of opaganib in hospitalized COVID-19 pneumonia patients; format: in vivo, human
# Source text: Return to room air or a specific SpO2 oxygen saturation on room air. Assessment of on-treatment viral load changes, and changes in D-dimer, cardiac troponin, LDH and ferritin levels. Study Design:
# Patients entered a screening period of up to 1 week. Eligible patients entered the treatment period for up to 2 weeks. All participants were followed for 2 weeks after their last dose of study drug, at the end of the 2 week treatment period, or once they had 2 consecutive daily negative viral swabs for the COVID-19 virus or at after premature drug discontinuation prior to Day 14. The maximum duration of study participation was 35 days […].
# • 1. Adult male or female≥18 to ≤75 years of age, inclusive • 2. Proven COVID-19 infection and pneumonia not requiring mechanical ventilation or mechanically ventilated for no more than 24 hours at time of informed consent • 3. The patient, guardian or legally acceptable representative has signed a written IRB-approved informed consent. Key Exclusion Criteria: • 1. New York Heart Association Class III or IV, cardiac disease, myocardial infarction within the past 6 months, unstable arrhythmia, or evidence of ischemia on ECG • 2. Any co-morbidity that may add risk to the treatment in the judgement of the investigator. • 3. Pregnant (positive serum test) or nursing women • 4. Unwillingness or inability to comply with procedures required in this protocol. • 5. AST (SGOT) or ALT (SGPT)>2.5× upper limit of normal (ULN) • 6. Bilirubin>1.5×ULN (except where bilirubin increase is due to Gilbert's Syndrome) • 7. Serum creatinine>2.0×ULN • 8. Absolute neutrophil count<1000 cells/mm^3 • 9. Platelet count<75,000/mm^3 • 10. Hemoglobin<8.0 g/dL • 11. Currently taking warfarin, apixaban, argatroban or rivaroxaban • 12. Current drug or alcohol abuse Study Assessments: The following will be monitored daily (see Table 3): • Review of concomitant medications • Adverse Events • Physical exam • Vital signs (temperature, blood pressure, pulse rate, respiratory rate and oxygen saturation by pulse oximeter) • Clinical symptoms (cough, dyspnea, nausea, vomiting, diarrhea) • Nasopharyngeal viral swab • Serum chemistry • CBC with differential • Chest X-ray • Urinalysis
# Each dose is administered with food or 15-30 minutes after tube-feeding, where appropriate.
# These patients had moderate to severe COVID-19-related pneumonia with hypoxia on supplemental oxygen.
# Five patients were included in the analysis, and for comparison purposes, we used a control group with same-sex, same-severity patients (baseline characteristics). Univariate comparisons between the groups were performed with chi-square test for categorical variables and t-test or MannWhitney U-test for continuous variables, as appropriate. Time variables were compared with Cox proportional hazard regression, adjusted for age and background illnesses. CRP and lymphocyte changes were compared utilizing a repeated measures general linear model with a Bonferroni correction for multiple comparison.
# [2] = test system: patients with COVID-19 pneumonia; assay: Randomized, double-blind, placebo-controlled Phase 2a study of opaganib in COVID-19 pneumonia; format: in vivo, human
# Source text: This was a phase 2a, proof of concept, multi-center randomized double-blind, parallel arm, placebo-controlled study. After informed consent was obtained, patients entered a screening phase for no more than 3 days, to determine eligibility. […] Treatment assignments remained blinded to the patient, investigator and hospital staff, as well as the sponsor. As there was no consensus for a definitive treatment specifically targeting the SARS-CoV-2 virus causing COVID-19 (Wilson, 2020), standard of care referred to regional, institutional or physician directed therapies, that were implemented during the COVID-19 pandemic.
# Study drug was to be administered every day for 14 days (Day 1 to Day 14), unless the patient had been discharged from the hospital without requiring supplemental oxygen, in which case study drug would only be administered to Day 10.
# All participants were followed up for 4 weeks after their last dose of study drug, which may have occurred at the end of the 2-week double-blind treatment phase or after premature study drug discontinuation, based upon patient or physician determination. The maximum duration of study participation was up to 45 days (including up to 3 days screening; 2 weeks DB treatment phase and 4-weeks off-study drug follow-up)
# • 1. Adult male or female≥18 to ≤80 years of age • 2. Proven COVID-19 infection per RT-PCR assay of a pharyngeal sample (nasopharyngeal or oropharyngeal) AND pneumonia defined as radiographic opacities on chest X-ray • 3. The patient requires supplemental oxygen at baseline • 4. The patient, guardian or legal representative has signed a written IRB-approved informed consent Exclusion: • 1. Any co-morbidity that may add risk to the treatment in the judgement of the investigator. • 2. Requiring intubation and mechanical ventilation • 3. Oxygen saturation≥95% on room air • 4. Any preexisting respiratory condition that requires intermittent or continuous ambulatory oxygen prior to hospitalization • 5. Patient is, in the investigator's clinical judgement, unlikely to survive >72 hours • 6. Pregnant (positive serum test within 3 days prior to randomization) or nursing women • 7. Unwillingness or inability to comply with procedures required in this protocol. • 8. Corrected QT (QTc) interval on electrocardiogram (ECG) >470 ms for females or >450 ms for males, calculated using Friedericia's formula (QTcF) • 9. AST (SGOT) or ALT (SGPT) >2.5× upper limit of normal (ULN) • 10. Bilirubin>1.5×ULN (except where bilirubin increase is due to Gilbert's Syndrome) • 11. Serum creatinine>2.0×ULN • 12. Absolute neutrophil count<1000 cells/mm^3 • 13. Platelet count<75,000/mm^3 • 14. Hemoglobin<8.0 g/dL • 15. Currently taking medications that are sensitive CYP3A4, CYP2C9 or CYP2C19 substrates and have a narrow therapeutic index • 16. Currently taking medications that are strong inducers or inhibitors of CYP2D6 and CYP3A4 • 17. Currently taking warfarin, apixaban, argatroban or rivaroxaban • 18. Current drug or alcohol abuse • 19. Currently participating in a clinical study assessing pharmacological treatments, including anti-viral studies Number of Subjects: […]
# [3] = of 6 moderate-to-severe patients
smiles,measurement,setting,value
"O=C(NCc1ccncc1)C12CC3CC(C1)CC(c1ccc(Cl)cc1)(C3)C2 [opaganib, 3-(4-chlorophenyl)-adamantane-1-carboxylic acid (pyridin-4-ylmethyl) amide, hydrochloride salt]","HR, time to weaning from HFNC, cases vs. controls","[1]; 95% CI: 0.07-1.7, p=0.2, Cox regression adjusted for age and background illnesses",0.3
same,"HR, time to ambient air, cases vs. controls",[1]; 95% CI: 0.15-1.5,0.4
same,"Lymphocytes, most recent","[1]; Patient 1 (14 d), baseline 1.6, 17 Apr. 2020",2.8 (17 Apr. 2020) 10^3/mm^3
same,"CRP, most recent","[1]; Patient 1 (14 d), baseline 15.1, 17 Apr. 2020",1 (17 Apr. 2020) mg/L
same,Clinical Assessment,"[1]; Patient 1 (14 d on opaganib), started severe on maximal OptiFlow 3 Apr. 2020","3 Apr. 2020; RA by 16/4. As of 22/4, one negative"
same,"Lymphocytes, most recent","[1]; Patient 2 (14 d), baseline 1.1, 17 Apr. 2020",2.1 (17 Apr. 2020) 10^3/mm^3
same,"CRP, most recent","[1]; Patient 2 (14 d), baseline 14.2, 17 Apr. 2020",4.8 (17 Apr. 2020) mg/L
same,Clinical Assessment,"[1]; Patient 2 (14 d), started severe+, planning for intubation 7 Apr. 2020","7 Apr. 2020; RA by 20 Apr. 4 2020, D/C on"
same,"Lymphocytes, most recent","[1]; Patient 3 (7 d), baseline 0.9, 17 Apr. 2020",1.2 (17 Apr. 2020) 10^3/mm^3
same,"CRP, most recent","[1]; Patient 3 (7 d), baseline 10.7, 17 Apr. 2020",1.7 (17 Apr. 2020) mg/L
same,Clinical Assessment,"[1]; Patient 3 (7 d), moderate-severe, on OptiFlow 13 Apr. 2020, RA by 17 Apr. 2020","17 Apr. 2020, D/C on 19 Apr. 2020"
same,"Lymphocytes, most recent","[1]; Patient 4 (11 d), baseline 1.2, 22 Apr. 2020",1 (22 Apr. 2020) 10^3/mm^3
same,"CRP, most recent","[1]; Patient 4 (11 d), baseline 24.8, 22 Apr. 2020",17.4 (22 Apr. 2020) mg/L
same,Clinical Assessment,"[1]; Patient 4 (11 d), started severe+ 70% OptiFlow on 13 Apr. 2020",RA on 22 Apr. 2020
same,Clinical Assessment,"[1]; Patient 5 (2 d), started moderate on 13 Apr. 2020, nasal cannula, D/C on 14 Apr. 2020 on RA",Dramatic improvement after one day on
same,"Lymphocytes, most recent","[1]; Patient 6 (5 d), baseline 1.35, 24 Apr. 2020",1.96 (24 Apr. 2020) 10^3/mm^3
same,"CRP, most recent","[1]; Patient 6 (5 d), baseline 12.2, 24 Apr. 2020",6.8 (24 Apr. 2020) mg/L
same,adverse event leading to discontinuation,"[1]; Patient 7 (1 d), also on HCQ and azithromycin, may or may not be related to opaganib","opaganib started. Diarrhea the next day, all 3 meds were stopped, followed by worsening SOB, on 75% OptiFlow."
same,C-Reactive Protein (CRP),[1]; all six patients,reduction
same,"clinical improvement, including reduced supplemental oxygenation and higher lymphocyte counts",[1]; all six patients,measurable clinical improvement
same,median time to weaning from high-flow nasal cannula (HFNC),"[1]; cases, controls 15 days",10 days
same,cases requiring mechanical ventilation,[1]; compared with 33% of controls,none
same,lymphocyte count change vs. matched controls,"[1]; five patients vs. same-sex, same-severity control group",significantly faster increase
same,patients back to breathing room air,[1]; [3],5 patients
same,patients discharged from hospital,[1]; [3],3 patients
same,moderate to-severe patients improved significantly,"[1]; of 6 patients treated (patient #7 excepted), opaganib plus standard-of-care",6 patients
same,patients with serious adverse events (SAEs) vs. placebo arm,[2]; 500 mg Q12 hours up to 14 days,fewer patients
same,safety,"[2]; 500 mg Q12 hours up to 14 days plus standard of care, vs. placebo",safe
same,reduction from baseline of the medial total oxygen requirement (AUC) over 14 days,[2]; control arm 46.7%,68.0%
same,proportion of patients discharged by Day 14,[2]; control arm 55.6%,73.7%
same,proportion of patients reaching room air and no longer requiring oxygen support by Day 14,"[2]; mITT sensitivity, control arm 22.2%",52.6%
same,proportion of patients with 50% reduction in supplemental oxygen by day 14,"[2]; mITT sensitivity, control arm 66.7%",89.5%
same,patients with adverse events such that study drug was terminated,"[2]; opaganib arm, one patient in placebo arm",Two
